target: T1, Recombinant human HSP90α (Homo sapiens, UniProt P07900); assay: Radioligand filter binding test with [3H]17AAG for the measurement of HSP90 inhibitors; details: competition with [3H]17AAG 0.08 μM; HSP90 1.5 μg/assay; 22° C., 30 min; read-out: IC50 (HSP90 inhibition)
T1 construct: host or cells: E. coli
Excerpt: Test Method for the Measurement of HSP90 Inhibitors
The binding of geldanamycin or 17-allylamino-17-demethoxygeldanamycin (17AAG) to HSP90 and competitive inhibition thereof can be utilised in order to determine the inhibitory activity of the compounds according to the invention (Carreras et al. 2003, Chiosis et al. 2002).
In the specific case, a radioligand filter binding test is used. The radioligand used here is tritium-labelled 17-allylaminogeldanamycin, [3H]17AAG. This filter binding test allows a targeted search for inhibitors which interfere with the ATP binding site.
Recombinant human HSP90α (E. coli expressed, 95% purity);
[3H]17AAG (17-allylaminogeldanamycin, [allylamino-2,3-^3H. Specific activity: 1.11×10^12 Bq/mmol (Moravek, MT-1717);
HEPES filter buffer (50 mM HEPES, pH 7.0, 5 mM MgCl2, BSA 0.01%)
Multiscreen FB (1 μm) filter plate (Millipore, MAFBNOB 50).
The 96-well microtitre filter plates are firstly irrigated and coated with 0.1% of polyethyleneimine.
The test is carried out under the following conditions:
Reaction temperature 22° C.
Reaction time: 30 min., shaking at 800 rpm
50 mM HEPES HCl, pH 7.0, 5 mM MgCl2, 0.01% (w/v) of BSA
At the end of the reaction, the supernatant in the filter plate is removed by suction with the aid of a vacuum manifold (Multiscreen Separation System, Millipore), and the filter is washed twice.
The filter plates are then measured in a beta counter (Microbeta, Wallac) with scintillator (Microscint 20, Packard).
“% of control” is determined from the “counts per minutes” values, and the IC-50 value of a compound is calculated therefrom.

SMILES	IC50 [nM]
CC(C)(C)OC(=O)N1CCC[C@H]1C(=O)OCc1cc(F)c(F)cc1-c1ccc2nc(N)nc(C(=O)N3Cc4ccccc4C3)c2c1	10 to 1000
NCCCC[C@H](N)C(=O)OCc1cc(F)c(F)cc1-c1ccc2nc(N)nc(C(=O)N3Cc4ccccc4C3)c2c1	10 to 1000
Nc1nc(C(=O)N2Cc3ccccc3C2)c2cc(-c3cc(F)c(F)cc3COP(=O)(O)O)ccc2n1	10 to 1000
CN1CCN(Cc2cc(F)ccc2-c2ccc3nc(N)nc(C(=O)N4Cc5ccccc5C4)c3c2)CC1	10 to 1000
Nc1nc(C(=O)N2Cc3ccccc3C2)c2cc(-c3ccccc3CN3CCC(F)(F)C3)ccc2n1	10 to 1000
CC(C)(C)NCc1cc2c(cc1-c1ccc3nc(N)nc(C(=O)N4Cc5ccccc5C4)c3c1)OCO2	10 to 1000
Nc1nc(C(=O)N2Cc3ccccc3C2)c2cc(-c3ccccc3CN3CCC(O)CC3)ccc2n1	10 to 1000
Nc1nc(C(=O)N2Cc3ccccc3C2)c2cc(-c3ccccc3CN3CCCC3)ccc2n1	10 to 1000
CC1CCCN1Cc1cc(F)ccc1-c1ccc2nc(N)nc(C(=O)N3Cc4ccccc4C3)c2c1 (centres unmarked)	10 to 1000
NCc1cc(F)c(F)cc1-c1ccc2nc(N)nc(C(=O)N3Cc4ccccc4C3)c2c1	10 to 1000
CN1CCN(Cc2ccc(F)cc2-c2ccc3nc(N)nc(C(=O)N4Cc5ccccc5C4)c3c2)CC1	10 to 1000
NCCCOCc1cc(F)c(F)cc1-c1ccc2nc(N)nc(C(=O)N3Cc4ccccc4C3)c2c1	10 to 1000
C[C@H]1CCCN1Cc1ccccc1-c1ccc2nc(N)nc(C(=O)N3Cc4ccccc4C3)c2c1	10 to 1000
CC(C)(C)NCc1cc(F)c(F)cc1-c1ccc2nc(N)nc(C(=O)N3Cc4ccccc4C3)c2c1	10 to 1000
CN1CCN(Cc2cc(F)c(F)cc2-c2ccc3nc(N)nc(C(=O)N4Cc5ccccc5C4)c3c2)CC1	10 to 1000
CC1CCCN1Cc1ccccc1-c1ccc2nc(N)nc(C(=O)N3Cc4ccccc4C3)c2c1 (centres unmarked)	10 to 1000
CC(C)(C)OC(=O)NCCCCCC(=O)OCc1cc(F)c(F)cc1-c1ccc2nc(N)nc(C(=O)N3Cc4ccccc4C3)c2c1	10 to 1000
C[C@@H]1CCCN1Cc1ccccc1-c1ccc2nc(N)nc(C(=O)N3Cc4ccccc4C3)c2c1	10 to 1000
NCCCCC(N)C(=O)OCc1ccc(F)cc1-c1ccc2nc(N)nc(C(=O)N3Cc4ccccc4C3)c2c1 (centres unmarked)	10 to 1000
NC(=O)CNCc1ccccc1-c1ccc2nc(N)nc(C(=O)N3Cc4ccccc4C3)c2c1	10 to 1000
NCCC(=O)OCc1cc(F)c(F)cc1-c1ccc2nc(N)nc(C(=O)N3Cc4ccccc4C3)c2c1	10 to 1000
Nc1nc(C(=O)N2Cc3ccccc3C2)c2cc(-c3cc(F)c(F)cc3CN3CCCC3)ccc2n1	10 to 1000

SMILES	IC50 [nM]
Nc1nc(C(=O)N2Cc3ccccc3C2)c2cc(-c3cc(F)c(F)cc3COCCO)ccc2n1	10 to 1000
Nc1nc(C(=O)N2Cc3ccccc3C2)c2cc(-c3cc(F)c(F)cc3COC(=O)[C@@H]3CCCN3)ccc2n1	10 to 1000
CC(C)(C)C(=O)OCc1cc(F)c(F)cc1-c1ccc2nc(N)nc(C(=O)N3Cc4ccccc4C3)c2c1	10 to 1000
Nc1nc(C(=O)N2Cc3ccccc3C2)c2cc(-c3ccccc3CNC3CC3)ccc2n1	10 to 1000
CC(C)(C)NCc1cc(F)ccc1-c1ccc2nc(N)nc(C(=O)N3Cc4ccccc4C3)c2c1	10 to 1000
CN(C)CCCOCc1cc(F)c(F)cc1-c1ccc2nc(N)nc(C(=O)N3Cc4ccccc4C3)c2c1	10 to 1000
CCN(C)Cc1cc(F)c(F)cc1-c1ccc2nc(N)nc(C(=O)N3Cc4ccccc4C3)c2c1	10 to 1000
CC1CCC(C)N1Cc1ccccc1-c1ccc2nc(N)nc(C(=O)N3Cc4ccccc4C3)c2c1 (centres unmarked)	10 to 1000
CCN(C)Cc1ccc(F)cc1-c1ccc2nc(N)nc(C(=O)N3Cc4ccccc4C3)c2c1	10 to 1000
Nc1nc(C(=O)N2Cc3ccccc3C2)c2cc(-c3ccccc3CN(CCO)CCO)ccc2n1	10 to 1000
Nc1nc(C(=O)N2Cc3ccccc3C2)c2cc(-c3ccccc3CN3CCC(O)C3)ccc2n1 (centres unmarked)	10 to 1000
CC(C)(C)NCc1ccccc1-c1ccc2nc(N)nc(C(=O)N3Cc4ccccc4C3)c2c1	10 to 1000
CC(C)CC(N)C(=O)OCc1cc(F)c(F)cc1-c1ccc2nc(N)nc(C(=O)N3Cc4ccccc4C3)c2c1 (centres unmarked)	10 to 1000
Nc1nc(C(=O)N2Cc3ccccc3C2)c2cc(-c3ccccc3CN3CC[C@H](F)C3)ccc2n1	10 to 1000
CN(CCO)Cc1ccccc1-c1ccc2nc(N)nc(C(=O)N3Cc4ccccc4C3)c2c1	10 to 1000
CCN(CC)Cc1cc(F)c(F)cc1-c1ccc2nc(N)nc(C(=O)N3Cc4ccccc4C3)c2c1	10 to 1000
Nc1nc(C(=O)N2Cc3ccccc3C2)c2cc(-c3cc(F)ccc3CN3CCC(O)CC3)ccc2n1	10 to 1000
CC(C)(C)OP(=O)(OCc1cc(F)c(F)cc1-c1ccc2nc(N)nc(C(=O)N3Cc4ccccc4C3)c2c1)OC(C)(C)C	10 to 1000
CC1CCCN1Cc1ccc(F)cc1-c1ccc2nc(N)nc(C(=O)N3Cc4ccccc4C3)c2c1 (centres unmarked)	10 to 1000
CCN(CCO)Cc1ccccc1-c1ccc2nc(N)nc(C(=O)N3Cc4ccccc4C3)c2c1	10 to 1000
NCCCC[C@H](N)C(=O)OCc1ccccc1-c1ccc2nc(N)nc(C(=O)N3Cc4ccccc4C3)c2c1	10 to 1000
CN(Cc1cc(F)c(F)cc1-c1ccc2nc(N)nc(C(=O)N3Cc4ccccc4C3)c2c1)C(C)(C)C	10 to 1000

SMILES	IC50 [nM]
NOCc1cc(F)c(F)cc1-c1ccc2nc(N)nc(C(=O)N3Cc4ccccc4C3)c2c1	10 to 1000
CCN(CCO)Cc1ccc(F)cc1-c1ccc2nc(N)nc(C(=O)N3Cc4ccccc4C3)c2c1	10 to 1000
Nc1nc(C(=O)N2Cc3ccccc3C2)c2cc(-c3ccccc3CNC3CCC3)ccc2n1	10 to 1000
Nc1nc(C(=O)N2Cc3ccccc3C2)c2cc(-c3ccccc3CN3CCC(N)C3)ccc2n1 (centres unmarked)	10 to 1000
CC1CCC(C)N1Cc1cc(F)c(F)cc1-c1ccc2nc(N)nc(C(=O)N3Cc4ccccc4C3)c2c1 (centres unmarked)	10 to 1000
CNC(=O)C1CCCN1Cc1ccccc1-c1ccc2nc(N)nc(C(=O)N3Cc4ccccc4C3)c2c1 (centres unmarked)	10 to 1000
CN(Cc1ccccc1-c1ccc2nc(N)nc(C(=O)N3Cc4ccccc4C3)c2c1)C1CC1	10 to 1000
NCCC(=O)NCc1cc(F)c(F)cc1-c1ccc2nc(N)nc(C(=O)N3Cc4ccccc4C3)c2c1	10 to 1000
CN(C)CCC(=O)OCc1cc(F)c(F)cc1-c1ccc2nc(N)nc(C(=O)N3Cc4ccccc4C3)c2c1	10 to 1000
CCN(CC)Cc1ccc(F)cc1-c1ccc2nc(N)nc(C(=O)N3Cc4ccccc4C3)c2c1	10 to 1000
Nc1nc(C(=O)N2Cc3ccccc3C2)c2cc(-c3ccccc3CN3CCC(CO)C3)ccc2n1 (centres unmarked)	10 to 1000
Nc1nc(C(=O)N2Cc3ccccc3C2)c2cc(-c3cc(F)c(F)cc3COCCOCCOCCO)ccc2n1	10 to 1000
CCN(C)Cc1ccccc1-c1ccc2nc(N)nc(C(=O)N3Cc4ccccc4C3)c2c1	10 to 1000
CC(C)(C)NCc1ccc(F)cc1-c1ccc2nc(N)nc(C(=O)N3Cc4ccccc4C3)c2c1	10 to 1000
CCN(CC)Cc1ccccc1-c1ccc2nc(N)nc(C(=O)N3Cc4ccccc4C3)c2c1	10 to 1000
CC1CCCN1Cc1cc(F)c(F)cc1-c1ccc2nc(N)nc(C(=O)N3Cc4ccccc4C3)c2c1 (centres unmarked)	10 to 1000
NCCC[C@H](N)C(=O)OCc1cc(F)c(F)cc1-c1ccc2nc(N)nc(C(=O)N3Cc4ccccc4C3)c2c1	10 to 1000
CN(C)CCOCc1cc(F)c(F)cc1-c1ccc2nc(N)nc(C(=O)N3Cc4ccccc4C3)c2c1	10 to 1000
COc1cc(CO)c(-c2ccc3nc(N)nc(C(=O)N4Cc5ccccc5C4)c3c2)cc1OC	1000 to 10000
CN(C)CCC(=O)NCc1cc(F)c(F)cc1-c1ccc2nc(N)nc(C(=O)N3Cc4ccccc4C3)c2c1	10 to 1000
Nc1nc(C(=O)N2Cc3ccccc3C2)c2cc(-c3ccccc3CN3CCCC3C(=O)NCCO)ccc2n1 (centres unmarked)	10 to 1000

From patent US8791129B2, “Phenylquinazoline derivatives” (Merck Patent GmbH, priority 2010, dated 2014)
